Laboratory results as given in patent publication US8993574B2, “Pyrrole antifungal agents” (F2G Ltd, priority 2008, dated 2015).
In brackets after ≈: the same amount, converted by molar mass.

Tests used:
Type in all cases: cell-based
Aspergillus terreus AT4 [1] = test: MIC, RPMI medium; conditions: for MIC grade, A. terreus: MIC banded into grades; for MIC: Aspergillus terreus, AT4, MIC banded into grades, read-out: MIC grade, A. terreus
How it was run: (§1)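 MIC taken as lowest drug level inhibiting growth by >80% relative to drug-free wells, read as OD at 485 nm after 24-48 h at 35° C. Organisms at 1−2×10^4 cfu/mL in RPMI (2% glucose, 0.135 M MOPS, pH 7.0) exposed to doubling dilutions spanning 50-0.05 mg/L.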

[2] = system: Aspergillus fumigatus AF210; test: MIC, RPMI medium; conditions: for MIC grade, A. fumigatus 210: MIC banded into grades; for MIC: Aspergillus fumigatus, AF210, MIC banded into grades, read-out: MIC grade, A. fumigatus 210
How it was run: as §1

Aspergillus flavus [3] = test: MIC, RPMI medium; conditions: MIC banded into grades; for MIC: Aspergillus flavus, read-out: MIC grade, A. flavus
How it was run: as §1

Aspergillus terreus AT49 [4] = test: MIC, RPMI medium; conditions: for MIC grade, A. terreus 49: MIC banded into grades; for MIC: Aspergillus terreus, AT49, MIC banded into grades, read-out: MIC grade, A. terreus 49
How it was run: as §1

[5] = system: Aspergillus fumigatus AF293; test: MIC, RPMI medium; conditions: for MIC grade, A. fumigatus: MIC banded into grades; for MIC: Aspergillus fumigatus, AF293, MIC banded into grades, read-out: MIC grade, A. fumigatus
How it was run: as §1

Aspergillus niger [6] = test: MIC, RPMI medium; conditions: MIC banded into grades; for MIC: Aspergillus niger, read-out: MIC grade, A. niger
How it was run: as §1

Aspergillus terreus AT4 [7] = test: MIC, YAG medium; conditions: 24 h at 35° C, MIC banded into grades; for MIC: Aspergillus terreus, read-out: MIC grade, A. terreus
How it was run: (§2)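 MICs (mg/L) derive from the lowest compound concentration suppressing spore outgrowth by >70% against a drug-free well, by OD 485 nm. Conditions: YAG medium, 1−2×10^4 cfu/mL, 24 h, 35° C, two-fold dilutions from 50 mg/L.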

[8] = system: Aspergillus fumigatus AF210; test: MIC, YAG medium; conditions: 24 h at 35° C, MIC banded into grades; for MIC: Aspergillus fumigatus, read-out: MIC grade, A. fumigatus 210
How it was run: as §2

Aspergillus flavus [9] = test: MIC, YAG medium; conditions: 24 h at 35° C, MIC banded into grades; for MIC: Aspergillus flavus, 24 h, read-out: MIC grade, A. flavus
How it was run: as §2

Aspergillus terreus AT49 [10] = test: MIC, YAG medium; conditions: 24 h at 35° C, MIC banded into grades; for MIC: Aspergillus terreus, read-out: MIC grade, A. terreus 49
How it was run: as §2

[11] = system: Aspergillus fumigatus AF293; test: MIC, YAG medium; conditions: 24 h at 35° C, MIC banded into grades; for MIC: Aspergillus fumigatus, read-out: MIC grade, A. fumigatus
How it was run: as §2

Aspergillus niger [12] = test: MIC, YAG medium; conditions: 24 h at 35° C, MIC banded into grades; for MIC: Aspergillus niger, read-out: MIC grade, A. niger
How it was run: as §2

Row | MIC (Aspergillus terreus AT4 [1]) [µg/mL] | MIC [2] [µg/mL] | MIC (Aspergillus flavus [3]) [µg/mL] | MIC (Aspergillus terreus AT49 [4]) [µg/mL] | MIC [5] [µg/mL] | MIC (Aspergillus niger [6]) [µg/mL] | MIC (Aspergillus terreus AT4 [7]) [µg/mL] | MIC [8] [µg/mL] | MIC (Aspergillus flavus [9]) [µg/mL] | MIC (Aspergillus terreus AT49 [10]) [µg/mL] | MIC [11] [µg/mL] | MIC (Aspergillus niger [12]) [µg/mL] | Structure (SMILES) | MIC grade, A. terreus (Aspergillus terreus AT4 [1]) | MIC grade, A. fumigatus 210 [2] | MIC grade, A. flavus (Aspergillus flavus [3]) | MIC grade, A. terreus 49 (Aspergillus terreus AT49 [4]) | MIC grade, A. fumigatus [5] | MIC grade, A. niger (Aspergillus niger [6]) | MIC grade, A. terreus (Aspergillus terreus AT4 [7]) | MIC grade, A. fumigatus 210 [8] | other results
1 | 1 to 10 (≈ 2.15 to 21.5 µM) | 1 to 10 (≈ 2.15 to 21.5 µM) | > 10 | > 10 | 1 to 10 (≈ 2.15 to 21.5 µM) | < 1 | < 1 | 1 to 10 (≈ 2.15 to 21.5 µM) | < 1 | < 1 | < 1 | < 1 | COCCn1c(C)cc(-c2ccccc2)c1C(=O)C(=O)Nc1ccc(N2CCOCC2)cc1F [Example 117, N-(2-Fluoro-4-morpholin-4-yl-phenyl)-2-[1-(2-methoxy-ethyl)-5-methyl-3-phenyl-1H-pyrrol-2-yl]-2-oxo-acetamide] | – | – | – | – | – | – | – | – | –
2 | 1 to 10 (≈ 1.72 to 17.2 µM) | 1 to 10 (≈ 1.72 to 17.2 µM) | 1 to 10 (≈ 1.72 to 17.2 µM) | 1 to 10 (≈ 1.72 to 17.2 µM) | < 1 | 1 to 10 (≈ 1.72 to 17.2 µM) | 1 to 10 (≈ 1.72 to 17.2 µM) | < 1 | 1 to 10 (≈ 1.72 to 17.2 µM) | 1 to 10 (≈ 1.72 to 17.2 µM) | 1 to 10 (≈ 1.72 to 17.2 µM) | 1 to 10 (≈ 1.72 to 17.2 µM) | Cc1cc(C)nc(N2CCN(c3ccc(NC(=O)C(=O)c4c(-c5ccccc5)cc(C)n4CCOC(C)C)cc3)CC2)c1 [Example 97, N-{4-[4-(4,6-Dimethyl-pyridin-2-yl)-piperazin-1-yl]-phenyl}-2-[1-(2-isopropoxy-ethyl)-5-methyl-3-phenyl-1H-pyrrol-2-yl]-2-oxo-acetamide] | – | – | – | – | – | – | – | – | –
3 | < 1 | < 1 | < 1 | < 1 | < 1 | < 1 | < 1 | < 1 | < 1 | < 1 | < 1 | < 1 | Cc1cc(-c2ccccc2)c(C(=O)C(=O)Nc2ccc(N3CCN(c4ccccn4)CC3)cc2)n1C [Example 38, 2-(1,5-Dimethyl-3-phenyl-1H-pyrrol-2-yl)-2-oxo-N-[4-(4-pyridin-2-yl-piperazin-1-yl)-phenyl]-acetamide] | – | – | – | – | – | – | – | – | –
4 | < 1 | < 1 | < 1 | < 1 | < 1 | < 1 | < 1 | < 1 | < 1 | < 1 | < 1 | < 1 | CCn1ccc2c(F)c(NC(=O)C(=O)c3c(-c4ccccc4)cc(C)n3C)ccc21 [Example 128, 2-(1,5-Dimethyl-3-phenyl-1H-pyrrol-2-yl)-N-(1-ethyl-4-fluoro-1H-indol-5-yl)-2-oxo-acetamide] | – | – | – | – | – | – | – | – | –

Further lines, the molecule ahead of its results:

Row | Structure (SMILES) | MIC (Aspergillus terreus AT4 [1]) [µg/mL] | MIC [2] [µg/mL] | MIC (Aspergillus flavus [3]) [µg/mL] | MIC (Aspergillus terreus AT49 [4]) [µg/mL] | MIC [5] [µg/mL] | MIC (Aspergillus niger [6]) [µg/mL] | MIC (Aspergillus terreus AT4 [7]) [µg/mL] | MIC [8] [µg/mL] | MIC (Aspergillus flavus [9]) [µg/mL] | MIC (Aspergillus terreus AT49 [10]) [µg/mL] | MIC [11] [µg/mL] | MIC (Aspergillus niger [12]) [µg/mL] | MIC grade, A. terreus (Aspergillus terreus AT4 [1]) | MIC grade, A. fumigatus 210 [2] | MIC grade, A. flavus (Aspergillus flavus [3]) | MIC grade, A. terreus 49 (Aspergillus terreus AT49 [4]) | MIC grade, A. fumigatus [5] | MIC grade, A. niger (Aspergillus niger [6]) | MIC grade, A. terreus (Aspergillus terreus AT4 [7]) | MIC grade, A. fumigatus 210 [8] | other results
5 | COCCn1c(C(C)C)cc(-c2ccccc2)c1C(=O)C(=O)Nc1ccc(N2CCN(c3cc(C)cc(C)n3)CC2)cc1 [Example 78, N-{4-[4-(4,6-Dimethyl-pyridin-2-yl)-piperizin-1-yl]-phenyl}-2-[5-isopropyl-1-(2-methoxy-ethyl)-3-phenyl-1H-pyrrol-2-yl]-2-oxo-acetamide] | – | – | – | – | – | – | – | – | – | – | – | – | 1 (a grade of 1 represents an MIC of greater than 10 mg/L) | 1 (a grade of 1 represents an MIC of greater than 10 mg/L) | 1 (a grade of 1 represents an MIC of greater than 10 mg/L) | 1 (a grade of 1 represents an MIC of greater than 10 mg/L) | 1 (a grade of 1 represents an MIC of greater than 10 mg/L) | 1 (a grade of 1 represents an MIC of greater than 10 mg/L) | 1 (a grade of 1 represents an MIC of greater than 10 mg/L) | 1 (a grade of 1 represents an MIC of greater than 10 mg/L) | MIC grade, A. flavus (Aspergillus flavus [9]): 1 (a grade of 1 represents an MIC of greater than 10 mg/L); MIC grade, A. terreus 49 (Aspergillus terreus AT49 [10]): 2 (A grade of 2 represents an MIC of from 1 to 10 mg/L); MIC grade, A. fumigatus [11]: 1 (a grade of 1 represents an MIC of greater than 10 mg/L); MIC grade, A. niger (Aspergillus niger [12]): 1 (a grade of 1 represents an MIC of greater than 10 mg/L)
6 | CCOC(=O)n1c(C)cc(-c2ccccc2)c1C(=O)C(=O)Nc1ccc(N2CCN(c3cc(C)cc(C)n3)CC2)cc1 [Example 55, 2-{4-[4-(4,6-Dimethyl-pyridin-2-yl)-piperazin-1-yl]-phenylaminooxalyl}-5-methyl-3-phenyl-pyrrole-1-carboxylic acid ethyl ester] | – | – | – | – | – | – | – | – | – | – | – | – | 1 (a grade of 1 represents an MIC of greater than 10 mg/L) | 1 (a grade of 1 represents an MIC of greater than 10 mg/L) | 1 (a grade of 1 represents an MIC of greater than 10 mg/L) | 1 (a grade of 1 represents an MIC of greater than 10 mg/L) | 1 (a grade of 1 represents an MIC of greater than 10 mg/L) | 1 (a grade of 1 represents an MIC of greater than 10 mg/L) | 1 (a grade of 1 represents an MIC of greater than 10 mg/L) | 2 (A grade of 2 represents an MIC of from 1 to 10 mg/L) | MIC grade, A. flavus (Aspergillus flavus [9]): 1 (a grade of 1 represents an MIC of greater than 10 mg/L); MIC grade, A. terreus 49 (Aspergillus terreus AT49 [10]): 2 (A grade of 2 represents an MIC of from 1 to 10 mg/L); MIC grade, A. fumigatus [11]: 2 (A grade of 2 represents an MIC of from 1 to 10 mg/L); MIC grade, A. niger (Aspergillus niger [12]): 1 (a grade of 1 represents an MIC of greater than 10 mg/L)
7 | Cc1cc(-c2ccccc2)c(C(=O)C(=O)Nc2ccc(-c3ncco3)cc2F)n1C [Example 100, 2-(1,5-Dimethyl-3-phenyl-1H-pyrrol-2-yl)-N-[2-fluoro-4-oxazol-2-yl-phenyl)-2-oxo-acetamide] | < 1 | 1 to 10 (≈ 2.48 to 24.8 µM) | < 1 | < 1 | < 1 | < 1 | < 1 | 1 to 10 (≈ 2.48 to 24.8 µM) | < 1 | < 1 | < 1 | < 1 | – | – | – | – | – | – | – | – | –
8 | COCCn1c(C)cc(-c2ccccc2)c1C(=O)C(=O)Nc1ccc(-c2ncco2)cc1 [Example 149, 2-[1-(2-Methoxy-ethyl)-5-methyl-3-phenyl-1H-pyrrol-2-yl]-N-(4-oxazol-2-yl-phenyl)-2-oxo-acetamide] | 1 to 10 (≈ 2.33 to 23.3 µM) | 1 to 10 (≈ 2.33 to 23.3 µM) | > 10 | 1 to 10 (≈ 2.33 to 23.3 µM) | 1 to 10 (≈ 2.33 to 23.3 µM) | < 1 | < 1 | < 1 | < 1 | < 1 | < 1 | < 1 | – | – | – | – | – | – | – | – | –
9 | Cc1ccnc(N2CCN(c3ccc(NC(=O)C(=O)c4c(-c5ccccc5)cc(C)n4C)cc3)CC2)c1 [Example 40, 2-(1,5-Dimethyl-3-phenyl-1H-pyrrol-2-yl)-N-{4-[4-(4-methyl-pyridin-2-yl)-piperazin-1-yl]-phenyl}-2-oxo-acetamide] | < 1 | < 1 | < 1 | < 1 | < 1 | < 1 | < 1 | < 1 | < 1 | < 1 | < 1 | < 1 | – | – | – | – | – | – | – | – | –
10 | COC(=O)n1c(C)cc(-c2ccccc2)c1C(=O)C(=O)Nc1ccc(N2CCN(c3cc(C)cc(C)n3)CC2)cc1 [Example 56, 2-{4-[4-(4,6-Dimethyl-pyridin-2-yl)-piperazin-1-yl]-phenylaminooxalyl}-5-methyl-3-phenyl-pyrrole-1-carboxylic acid methyl ester] | – | – | – | – | – | – | – | – | – | – | – | – | 1 (a grade of 1 represents an MIC of greater than 10 mg/L) | 1 (a grade of 1 represents an MIC of greater than 10 mg/L) | 1 (a grade of 1 represents an MIC of greater than 10 mg/L) | 1 (a grade of 1 represents an MIC of greater than 10 mg/L) | 1 (a grade of 1 represents an MIC of greater than 10 mg/L) | 1 (a grade of 1 represents an MIC of greater than 10 mg/L) | 2 (A grade of 2 represents an MIC of from 1 to 10 mg/L) | 2 (A grade of 2 represents an MIC of from 1 to 10 mg/L) | MIC grade, A. flavus (Aspergillus flavus [9]): 1 (a grade of 1 represents an MIC of greater than 10 mg/L); MIC grade, A. terreus 49 (Aspergillus terreus AT49 [10]): 2 (A grade of 2 represents an MIC of from 1 to 10 mg/L); MIC grade, A. fumigatus [11]: 2 (A grade of 2 represents an MIC of from 1 to 10 mg/L); MIC grade, A. niger (Aspergillus niger [12]): 2 (A grade of 2 represents an MIC of from 1 to 10 mg/L)
